The results in this text go back to patent US20230143751A1, “Aromatic Compound And Use Thereof In Preparing Antineoplastic Drugs” (Shanghai Zheye Biotechnology Co. Ltd., priority 2020, published 2023).

Data set [1] relates to NCI-H358-derived xenograft tumor. As to the kind of experiment: Pharmacodynamics study of NCI-H358-derived xenograft tumor model, combination with Afatinib or Trametinib (test 10). The class given is in vivo, nude mice. As to conditions: i.g. QD×21 days, 3-2 10 mg/kg, Afatinib 10 mg/kg, Trametinib 0.1 mg/kg. How it is done: Animal species and number: Balb/c Nude; 6 animals per group. Test samples: […] Test groups: blank solvent control group; […] NCI-H358 tumor cells in logarithmic growth phase were cultured in vitro and collected, and inoculated subcutaneously into the right back of nude mice at a quantity of 5×10^6 cells/each. When the tumor volume reached 150-300 mm^3, the tumor-bearing nude mice were randomly grouped. Subsequently, the animals in each group were administered, and the day of the first administration was defined as day 1 of the test. Administration frequency: once a day. General state observation: observation time and frequency: once a day; observation indexes or contents: including but not limited to administration location, appearance and signs, general behavioral activities, mental status, death and other abnormal performance of the animals. The animals were euthanized at the end of the test. Tumor volume calculation: V=½×long diameter×short diameter^2 (mm^3).

For a further data set, the system named is NCI-H358. In words: Cell proliferation inhibitory activity on NCI-H358, 3D model test (agarose colony formation). The class given is cell-based. The settings on record: for IC50: Homo sapiens, NCI-H358, 3D agarose colony formation, NBT staining; for anti-cell proliferation activity against KRAS G12C mutant type cells NCI-H358 (in words): 3D model test. The method, then: 100 μl of agarose gel with a high concentration was spread in a 96-well plate as the bottom agarose gel layer. Agarose with a low concentration and growth medium containing cells were mixed and then spread on the bottom agar layer, cooled and solidified, then incubated overnight at 37° C. Mother solutions were prepared from the test compounds by using DMSO, and then subjected to gradient elution with RPMI 1640 growth medium. The solutions of test compounds with different concentrations after gradient elution were added to the 96-well plate comprising an upper layer of agar gel-cells. Solvent control well was set up and the plate was incubated in a CO2 incubator. The drug-containing medium was changed during the incubation period and the cell growth situation was observed. After the incubation, the cells were stained with NBT and the number of cell colony formation was counted, and the IC50 values of the compounds inhibiting cell proliferation were derived.

Another data set deals with MIA PaCa-2 cells. As to the kind of experiment: Cell proliferation activity of MIA PaCa-2 by CellTiter-Glo reagent. The class given is cell-based. The settings on record: 72 h, CellTiter-Glo; for IC50: Homo sapiens, MIA PaCa-2, read-out: IC50 value of cell proliferation inhibitory activity of the compound on MIA PaCa-2. The method, then:
MIA PaCa-2 cells in exponential growth phase were digested with trypsin-EDTA, plated in a 96-well plate with 2000-3000 cells per well, and incubated overnight at 37° C. with 5% CO2. Mother solutions were prepared from the test compounds by using DMSO, subjected to gradient elution with DMEM growth medium, and then added into the 96-well plate and incubated in an incubator for 72 h at 37° C. with 5% CO2. After the incubation, CellTiter-Glo test reagent with an equal volume was added into each well and the obtained 96-well plate was incubated after shaking. The chemiluminescence values were determined by microplate reader, and the IC50 values of the test compounds inhibiting the proliferation of MIA PaCa-2 cells were fitted and calculated by GraphPad Prism software.
The test method of inhibitory activity was the same as that in Test 2 in “Biological Tests” part.

Data set [2] is described as follows: Preliminary safety test, 5-day escalating oral dosing in Balb/c mice. The class given is in vivo. As to conditions: for water and food intake, activity and body weight during the administration period (in words): oral gavage once a day for 5 days, 200 to 800 mg/kg. The method, then: Test samples: Compound 3-2, Compound 3-6, Compound 3-12M, Compound 3-20, and Compound 4-8.
Animal species and number: Balb/c; 6 animals per group (half male and half female).
Administration mode: oral administration by gavage.
Animal grouping and administration dose: vehicle blank group, Compound 3-2 group (200 mg/kg, 400 mg/kg, 800 mg/kg), Compound 3-6 group (200 mg/kg, 400 mg/kg, 800 mg/kg), Compound 3-12M group (200 mg/kg, 400 mg/kg, 800 mg/kg), Compound 3-20 group (200 mg/kg, 400 mg/kg, 800 mg/kg), Compound 4-8 group (200 mg/kg, 400 mg/kg, 800 mg/kg).
Administration frequency: once a day for 5 days.
General clinical observations were performed 2 times a day (once in the morning and once in the afternoon) during the test period. Death, morbidity, respiration, secretions, feces, and diet, drinking situation and so on were observed, and the changes in body weight of the mice during the administration period were recorded. The animals in each group were euthanized after the administration, and all animals were dissected and subjected to gross observation.

The test system of the next data set is NCI-H358 cells. As to the kind of experiment: Cell proliferation activity of NCI-H358 by CellTiter-Glo reagent. The class given is cell-based. How it is done: NCI-H358 cells in exponential growth phase were digested with trypsin-EDTA, plated in a 96-well plate with 2000-3000 cells per well, and incubated overnight at 37° C. with 5% CO2. […] After the incubation, CellTiter-Glo test reagent with an equal volume was added into each well and the obtained 96-well plate was incubated after shaking. The chemiluminescence values were determined by microplate reader, and the IC50 values of the test compounds inhibiting the proliferation of NCI-H358 cells were fitted and calculated by GraphPad Prism software.
The test method of inhibitory activity was the same as that in Test 3 in “Biological Tests” part.
In general terms: Cellular ATP, detected with luciferase, serves as a proxy for viable cell number.

Data set [3] concerns MIA PaCa-2-derived xenograft tumor. In words: Pharmacodynamics test of MIA PaCa-2-derived xenograft tumor model in nude mice (test 6). Type of data set: in vivo. How it is done: Animal species and number: Balb/c Nude; 6 animals per group.
Test samples: Compound 3-2, Compound 3-6, Compound 3-20, Compound 3-12M.
Test groups: blank solvent control group; Compound 3-2 (10 mg/kg, QD×15 days), Compound 3-6 (10 mg/kg, QD×15 days), Compound 3-20 (10 mg/kg, QD×15 days), Compound 3-12M (10 mg/kg, QD×15 days).
Animal model establishment: MIA paca-2 tumor cells in logarithmic growth phase were cultured in vitro and collected, and inoculated subcutaneously into the right back of nude mice at a quantity of 5×10^6 cells/each. When the tumor volume reached 150-300 mm^3, the tumor-bearing nude mice were randomly grouped. Subsequently, the animals in each group were administered, and the day of the first administration was defined as day 1 of the test.
Administration route and frequency: oral administration by gavage; once a day.
General state observation: observation time and frequency: once a day; observation indexes or contents: including but not limited to administration location, appearance and signs, general behavioral activities, mental status, death and other abnormal performance of the animals. The animals were euthanized at the end of the test.
Tumor volume calculation: V=½×long diameter×short diameter^2 (mm^3). Tumor growth inhibition rate TGI (%) is used to evaluate the tumor inhibition efficacy of the compounds. TGI (%)=[1−(mean tumor volume in treatment group at the end of administration−mean tumor volume in treatment group at the beginning of administration)/(mean tumor volume in control group at the end of administration−mean tumor volume in control group at the beginning of administration)]×100%.

For a further data set, the target named is KRAS G12C (Homo sapiens, UniProt P01116, G12C). In words: Effect on KRAS(G12C) enzyme activity (KRAS G12C/c-Raf binding, Eu/d2 energy transfer). Type of data set: biochemical. How it is done:
Compound stock solution was taken, and the test compound was subjected to gradient elution in DMSO. The above diluted compound was added into a quantitative volume of enzyme reaction buffer and subjected to oscillation on a microplate oscillator for 20 min.
4 μL of enzyme was transferred to a 384-well reaction plate. 1 μL of the test compound was added into the 384-well reaction plate. The plate was sealed with sealing film, and the reaction plate with the compound was centrifuged at 1000 rpm for 1 min and incubated for 60 min. 5 μL of a mixture of substrate and antibody was transferred to the 384-well reaction plate. The plate was sealed with sealing film, then centrifuged at 1000 rpm for 1 min and incubated for 120 min at room temperature.
Ratiopositive control: average value of the ratios of 10 positive control wells; Rationegative control: average value of the ratios of 10 negative control wells.

Sequence of KRAS G12C (P01116 1-188 isoform P01116-2 G12C): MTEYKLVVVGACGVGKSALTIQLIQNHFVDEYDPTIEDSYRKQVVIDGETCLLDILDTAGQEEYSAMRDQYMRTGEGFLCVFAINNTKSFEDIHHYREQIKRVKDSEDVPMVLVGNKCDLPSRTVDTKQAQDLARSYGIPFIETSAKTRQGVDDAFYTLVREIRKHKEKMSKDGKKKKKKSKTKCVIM

`CN(C)C/C=C/C(=O)Nc1cc2c(Nc3ccc(F)c(Cl)c3)ncnc2cc1O[C@H]1CCOC1` [Afatinib]: the “Tumor inhibition rate (%)” value in data set [1] is given as “+ (“+” represents a tumor inhibition rate of <130%)”.
As to `CC(=O)Nc1cccc(-n2c(=O)n(C3CC3)c(=O)c3c(Nc4ccc(I)cc4F)n(C)c(=O)c(C)c32)c1` [Trametinib], the “Tumor inhibition rate (%)” value in data set [1] is “+ (“+” represents a tumor inhibition rate of <130%)”.
Regarding `[2H]C([2H])=Cc1ccccc1-c1nc2c(cc1Cl)c(N1CCN(C(=O)C=C)C[C@@H]1C)nc(=O)n2-c1c(C([2H])([2H])[2H])ccnc1C(C)C` [Compound 4-8], the IC50 in the data set on NCI-H358 and in the data set on MIA PaCa-2 cells was under 50 nM in each case. The MTD at 5 days in data set [2] (both sexes, mouse, in vivo, oral gavage, 5 days, initially suggested, read-out: maximum tolerated dose) was over 800 mg/kg. Moreover, the “water and food intake, activity and body weight during the administration period (in words)” value in data set [2] is listed as “no significant abnormality was showed”.
For `[2H]C([2H])=Cc1cccc(F)c1-c1nc2c(cc1Cl)c(N1CCN(C(=O)C=C)C[C@@H]1C)nc(=O)n2-c1c(C)ccnc1C(C)C` [Compound 3-20], the “anti-cell proliferation activity against KRAS G12C mutant type cells NCI-H358 (in words)” value in the data set with NCI-H358 was “significant anti-cell proliferation activity”. The IC50 was under 50 nM with NCI-H358; under 50 nM in the data set on MIA PaCa-2 cells; 10 nM with NCI-H358 cells (Homo sapiens, NCI-H358, test 8, method of test 3, read-out: IC50 of proliferation inhibitory activity of the compound on NCI-H358 cell line); 19 nM at KRAS G12C (60 min incubation with enzyme, read-out: IC50 value of the compound on KRAS G12C enzyme activity). The “anti-cell proliferation activity against KRAS G12C mutant type cells MIA PaCa-2 (in words)” value in the data set with MIA PaCa-2 cells is “significant anti-cell proliferation activity”. Also, the “cell proliferation inhibitory activity of NCI-H358 compared with AMG510 (in words)” value in the data set with NCI-H358 cells (test 8) is “better than AMG510”. Also, the “water and food intake, activity and body weight during the administration period (in words)” value in data set [2] is listed as “no significant abnormality was showed”. Besides, the “inhibition effect on the growth of subcutaneously transplanted tumors derived from pancreatic cancer MIA paca-2 cells in nude mice (in words)” value in data set [3] (10 mg/kg QD×15 days) is listed as “significant inhibition effect”. For the same compound, the “Tumor inhibition rate (%)” value in data set [3] (MIA PaCa-2 xenograft, nude mice, 10 mg/kg oral gavage QD×15 days) is listed as “+++ (“+++” represents a tumor inhibition rate of >80%)”. The “inhibitory activity on KRAS G12C enzyme compared with AMG510 (in words)” value on KRAS G12C is recorded as “remarkable better”.
On to `[2H]C([2H])=Cc1ccccc1-c1nc2c(cc1Cl)c(N1CCN(C(=O)C=C)C[C@@H]1C)nc(=O)n2-c1c(C)ccnc1C(C)C` [Compound 3-24], for which the IC50 in the data set on NCI-H358 and in the data set with MIA PaCa-2 cells was under 50 nM throughout.
On to `[2H]C([2H])([2H])c1ccnc(C(C)C)c1-n1c(=O)nc(N2CCN(C(=O)C=C)C[C@@H]2C)c2cc(F)c(-c3ccccc3C=C)nc21` [Compound 4-23], for which the IC50 with NCI-H358 and in the data set on MIA PaCa-2 cells was under 50 nM throughout.
Consider `C=CC(=O)N1CCN(c2nc(=O)n(-c3c(C)ccnc3C(C)C)c3nc(-c4c(F)cccc4C=C)c(F)cc23)[C@@H](C)C1` [Compound 3-5], for which, in the data set with NCI-H358, the “anti-cell proliferation activity against KRAS G12C mutant type cells NCI-H358 (in words)” value is reported as “significant anti-cell proliferation activity” and the IC50 is under 50 nM. In the data set on MIA PaCa-2 cells, the “anti-cell proliferation activity against KRAS G12C mutant type cells MIA PaCa-2 (in words)” value was “significant anti-cell proliferation activity” and the IC50 is under 50 nM.
Take `C=CC(=O)N1CCN(c2nc(=O)n(-c3c(C)ccnc3C(C)C)c3nc(-c4ccccc4C=C)c(F)cc23)[C@@H](C)C1` [Compound 3-1]: in the data set with NCI-H358, the “anti-cell proliferation activity against KRAS G12C mutant type cells NCI-H358 (in words)” value is on record as “significant anti-cell proliferation activity” and the IC50 was under 50 nM. Besides, in the data set on MIA PaCa-2 cells, the “anti-cell proliferation activity against KRAS G12C mutant type cells MIA PaCa-2 (in words)” value is on record as “significant anti-cell proliferation activity” and the IC50 was under 50 nM.
